Measurements taken from ChEMBL document CHEMBL3046898, “Synthesis and characterization of flurbiprofen hydrazide derivatives as potential anti-HCV, anticancer and antimicrobial agents” (2013).
Calls of active or inactive are those of the source. No cut-off for these calls is given here.

Experiments:
[1] = tested on: Staphylococcus cohnii; assay: Antibacterial activity against Staphylococcus cohnii at 200 ug/disc after 24 hrs by disc diffusion method; type: functional, organism-based
[2] = tested on: Staphylococcus aureus; assay: Antibacterial activity against Staphylococcus aureus at 200 ug/disc after 24 hrs by disc diffusion method; type: functional, organism-based
[3] = tested on: Staphylococcus aureus; assay: Antibacterial activity against Staphylococcus aureus at 100 to 200 ug/ml after 24 hrs by microwell dilution assay; type: functional, organism-based
[4] = tested on: Micrococcus luteus; assay: Antibacterial activity against Micrococcus luteus at 100 to 200 ug/ml after 24 hrs by microwell dilution assay; type: functional, organism-based
[5] = tested on: CAKI-1; assay: Cytotoxicity against human Caki1 assessed as cell growth at 10 uM after 48 hrs by SRB assay; type: functional; conditions: CAKI-1, 48 h, read-out: Activity
[6] = tested on: Staphylococcus cohnii; assay: Antibacterial activity against Staphylococcus cohnii at 100 to 200 ug/ml after 24 hrs by microwell dilution assay; type: functional, organism-based
[7] = tested on: Hepacivirus hominis; assay: Inhibition of HCV N-terminal His-tagged NS5B RNA dependent RNA polymerase expressed in Escherichia coli DH5alpha using poly rA/U12 as primer at 200 uM after 60 mins by liquid scintillation counting
[8] = tested on: PC-3; assay: Cytotoxicity against human PC3 assessed as cell growth at 10 uM after 48 hrs by SRB assay; type: functional; conditions: PC-3, 48 h, read-out: Activity
[9] = tested on: T47D; assay: Cytotoxicity against human T47D assessed as cell growth at 10 uM after 48 hrs by SRB assay; type: functional; conditions: read-out: Activity
[10] = tested on: Staphylococcus aureus; assay: Antibacterial activity against Staphylococcus aureus at 10 mg/ml after 24 hrs by disc diffusion method; type: functional
[11] = tested on: Staphylococcus cohnii; assay: Antibacterial activity against Staphylococcus cohnii at 10 mg/ml after 24 hrs by disc diffusion method; type: functional
[12] = tested on: Escherichia coli; assay: Antibacterial activity against Escherichia coli at 6.25 to 200 ug/ml after 24 hrs by microwell dilution method; type: functional, organism-based
[13] = tested on: Micrococcus luteus; assay: Antibacterial activity against Micrococcus luteus at 10 mg/ml after 24 hrs by disc diffusion method; type: functional, organism-based
[14] = tested on: Candida parapsilosis; assay: Antifungal activity against Candida parapsilosis at 10 mg/ml after 48 hrs by disc diffusion method; type: functional, organism-based
[15] = tested on: Klebsiella aerogenes; assay: Antibacterial activity against Enterobacter aerogenes at 6.25 to 200 ug/ml after 24 hrs by microwell dilution method; type: functional, organism-based
[16] = tested on: Acinetobacter radioresistens; assay: Antibacterial activity against Acinetobacter radioresistens at 6.25 to 200 ug/ml after 24 hrs by microwell dilution method; type: functional, organism-based
[17] = tested on: Micrococcus luteus; assay: Antibacterial activity against Micrococcus luteus at 6.25 to 200 ug/ml after 24 hrs by microwell dilution method; type: functional, organism-based
[18] = tested on: Proteus vulgaris; assay: Antibacterial activity against Proteus vulgaris at 6.25 to 200 ug/ml after 24 hrs by microwell dilution method; type: functional, organism-based
[19] = tested on: MDA-MB-468; assay: Cytotoxicity against human MDA-MB-468 assessed as cell growth at 10 uM after 48 hrs by SRB assay; type: functional; conditions: MDA-MB-468, 48 h, read-out: Activity
[20] = tested on: Nakaseomyces glabratus; assay: Antifungal activity against Candida glabrata at 10 mg/ml after 48 hrs by disc diffusion method; type: functional, organism-based
[21] = tested on: Pseudomonas aeruginosa; assay: Antibacterial activity against Pseudomonas aeruginosa at 6.25 to 200 ug/ml after 24 hrs by microwell dilution method; type: functional, organism-based
[22] = tested on: Pseudomonas aeruginosa; assay: Antibacterial activity against Pseudomonas aeruginosa at 10 mg/ml after 24 hrs by disc diffusion method; type: functional, organism-based
[23] = tested on: Candida albicans; assay: Antifungal activity against Candida albicans at 10 mg/ml after 48 hrs by disc diffusion method; type: functional, organism-based
[24] = tested on: Micrococcus lylae; assay: Antibacterial activity against Micrococcus lylae at 10 mg/ml after 24 hrs by disc diffusion method; type: functional, organism-based
[25] = tested on: Staphylococcus cohnii; assay: Antibacterial activity against Staphylococcus cohnii at 6.25 to 200 ug/ml after 24 hrs by microwell dilution assay; type: functional, organism-based
[26] = tested on: Acinetobacter radioresistens; assay: Antibacterial activity against Acinetobacter radioresistens at 10 mg/ml after 24 hrs by disc diffusion method; type: functional, organism-based
[27] = tested on: Photorhabdus luminescens; assay: Antibacterial activity against Photorhabdus luminescens at 10 mg/ml after 24 hrs by disc diffusion method; type: functional, organism-based
[28] = tested on: Staphylococcus aureus; assay: Antibacterial activity against Staphylococcus aureus at 6.25 to 200 ug/ml after 24 hrs by microwell dilution assay; type: functional, organism-based
[29] = tested on: Salmonella paratyphi; assay: Antibacterial activity against Salmonella paratyphi at 6.25 to 200 ug/ml after 24 hrs by microwell dilution method; type: functional, organism-based; conditions: Salmonella enterica subsp. enterica serovar Paratyphi A
[30] = tested on: Escherichia coli; assay: Antibacterial activity against Escherichia coli at 10 mg/ml after 24 hrs by disc diffusion method; type: functional, organism-based
[31] = tested on: Candida tropicalis; assay: Antifungal activity against Candida tropicalis at 10 mg/ml after 48 hrs by disc diffusion method; type: functional, organism-based
[32] = tested on: Salmonella paratyphi; assay: Antibacterial activity against Salmonella paratyphi at 10 mg/ml after 24 hrs by disc diffusion method; type: functional, organism-based; conditions: Salmonella enterica subsp. enterica serovar Paratyphi A
[33] = tested on: Photorhabdus luminescens; assay: Antibacterial activity against Photorhabdus luminescens at 6.25 to 200 ug/ml after 24 hrs by microwell dilution method; type: functional, organism-based
[34] = tested on: Klebsiella aerogenes; assay: Antibacterial activity against Enterobacter aerogenes at 10 mg/ml after 24 hrs by disc diffusion method; type: functional, organism-based
[35] = tested on: Kluyveromyces marxianus; assay: Antifungal activity against Kluyveromyces marxianus at 10 mg/ml after 48 hrs by disc diffusion method; type: functional, organism-based
[36] = tested on: Schwanniomyces occidentalis; assay: Antifungal activity against Schwanniomyces occidentalis at 10 mg/ml after 48 hrs by disc diffusion method; type: functional, organism-based
[37] = tested on: Aspergillus; assay: Antifungal activity against Aspergillus at 10 mg/ml after 72 hrs by disc diffusion method; type: functional, organism-based
[38] = tested on: Micrococcus lylae; assay: Antibacterial activity against Micrococcus lylae at 6.25 to 200 ug/ml after 24 hrs by microwell dilution method; type: functional, organism-based
[39] = tested on: Proteus vulgaris; assay: Antibacterial activity against Proteus vulgaris at 10 mg/ml after 24 hrs by disc diffusion method; type: functional, organism-based
[40] = tested on: Pichia membranifaciens; assay: Antifungal activity against Pichia membranifaciens at 10 mg/ml after 48 hrs by disc diffusion method; type: functional, organism-based
[41] = tested on: SR; assay: Cytotoxicity against human SR assessed as cell growth at 10 uM after 48 hrs by SRB assay; type: functional; conditions: read-out: Activity

SMILES | Activity [3] | Activity [4] | Activity [6] | inhibition [7] [%] | growth at 10 µM [9] [%] | Activity [12] | Activity [13] | Activity [14] | Activity [15] | Activity [16] | Activity [10] | Activity [17] | Activity [18] | Activity [20] | Activity [21] | Activity [22] | Activity [23] | Activity [24] | Activity [25] | Activity [26] | also measured
CC1(C)S[C@@H]2[C@H](NC(=O)[C@H](N)c3ccccc3)C(=O)N2[C@H]1C(=O)O |  |  |  |  |  |  |  |  |  |  |  |  |  |  |  |  |  |  |  |  | Activity [1]: inactive; Activity [2]: inactive
CC(C(=O)NN1C(=O)CSC1c1ccc(Cl)cc1)c1ccc(-c2ccccc2)c(F)c1 (stereo unspecified) | Active | Active | Active | 8 | 50.9 |  |  |  |  |  |  |  |  |  |  |  |  |  |  |  | growth at 10 µM [5]: 29.6%; growth at 10 µM [8]: 49.2%
CC(C(=O)NN1C(=O)CSC1c1ccc([N+](=O)[O-])o1)c1ccc(-c2ccccc2)c(F)c1 (stereo unspecified) | Active | Active | Active | 8 |  |  |  |  |  |  |  |  |  |  |  |  |  |  |  |  | zone of inhibition at 10000 µg/mL ([10]; read-out: DIZ): 10 mm; zone of inhibition at 10000 µg/mL ([11]; read-out: DIZ): 10 mm
CCN1C(=O)CS/C1=N\NC(=O)C(C)c1ccc(-c2ccccc2)c(F)c1 (stereo unspecified) |  |  |  | 8 | 55.2 | inactive | inactive | inactive | inactive | inactive | inactive | inactive | inactive | inactive | inactive | inactive | inactive | inactive | inactive | inactive | growth at 10 µM [19]: 43.6%; Activity [27]: inactive; Activity [11]: inactive; Activity [28]: inactive; Activity [29]: inactive; Activity [30]: inactive; Activity [31]: inactive; Activity [32]: inactive; Activity [33]: inactive; Activity [34]: inactive; Activity [35]: inactive; Activity [36]: inactive; Activity [37]: inactive; Activity [38]: inactive; Activity [39]: inactive; Activity [40]: inactive
COc1ccc(/C=N/NC(=O)C(C)c2ccc(-c3ccccc3)c(F)c2)cc1 (stereo unspecified) |  |  |  | 8 | 57.4 | inactive | inactive | inactive | inactive | inactive | inactive | inactive | inactive | inactive | inactive | inactive | inactive | inactive | inactive | inactive | Activity [27]: inactive; Activity [11]: inactive; Activity [28]: inactive; Activity [29]: inactive; Activity [30]: inactive; Activity [31]: inactive; Activity [32]: inactive; Activity [33]: inactive; Activity [34]: inactive; Activity [35]: inactive; Activity [36]: inactive; Activity [37]: inactive; Activity [38]: inactive; Activity [39]: inactive; Activity [40]: inactive; growth at 10 µM [41]: 46%
